Experimental data: patent US20110064773A1, “PHARMACEUTICAL COMPOSITIONS COMPRISING A THYROID HORMON AND THEIR THERAPEUTIC USE” (UNIVERSITE JOSEPH FOURIER, priority 2007, published 2011)
Entries after “also recorded” stand apart in the source; their conditions may differ.

Legend:
[1] = test system: Wistar rats; test: Body composition (adipose tissues, skeletal muscles, brown adipose tissue) of Wistar rats; format: in vivo, rat; settings: for White adipose tissue mass / Brown adipose tissue: 2.5 μg/100 g continuous
Text: At the end of the experimental period, animals were sacrificed by decapitation, in order to avoid the well-known effects of general anesthetics on mitochondrial metabolism. Blood samples were immediately collected and plasma was frozen for subsequent determination of serum metabolites and hormones. Liver, muscles and fat depots were quickly excised and weighed. Liver median lobe was rapidly freeze-clamped. Muscles (plantaris, soleus and gastrocnemius) were frozen in isopentane precooled in liquid nitrogen. Mesenteric fat consisted of adipose tissue surrounding the gastro-intestinal tract from the gastro-oesophageal sphincter to the end of the rectum with special care taken in distinguishing and removing the pancreas. Retroperitoneal fat pad was taken as the distinct depot behind each kidney along the lumbar muscles. Epididymal fat consisted of adipose tissue on top of the epididymis. For subcutaneous depot measurement, a rectangular piece of skin was taken on the right side of each animal from the median line of the abdomen between the spine and the right hip to the first rib. Interscapular brown adipose tissue was removed and dissected free from adjacent muscles and white adipose tissue. The heart ventricles, the right kidney and the spleen were also excised, weighed and frozen.

[2] = test system: mitochondrial glycerol 3-phosphate dehydrogenase (mGPdH); test: Mitochondrial glycerol 3-phosphate dehydrogenase (mGPdH) activity in liver mitochondria of treated rats; format: in vivo, rat; settings: Wistar rats; for Mitochondrial GPdH activity: 2.5 μg/100 g continuous, 21 days
Protocol: Mitochondrial glycerol 3-phosphate dehydrogenase (mGPdH) activity was measured on the supernatant of isolated mitochondria after three cycles of freezing-thawing. Forty μg of mitochondria were incubated in a KH2PO4/K2HPO4 buffer (50 mM, pH 7.5) containing 9.3 μM of antimycin A, 5 μM of rotenone and decylubiquinone (50 μM). The reduction of 50 μM dichloro-indophenol (DCIP) by mGPDH was measured spectrophotometrically at 600 nm at 37° C. and enzymatic activity was expressed as μmol·min^−1·mg prot^−1.

[3] = 25 μg/100 g BW/day, continuous subcutaneous pellet, 8 days
[4] = 250 μg/kg BW pellet, three weeks, vs placebo, p<0.01
[5] = high dose 25 μg/100 g BW pellet, three weeks, vs placebo
[6] = low dose 2.5 μg/100 g BW, sub-cutaneous pellet, 21 days

N[C@@H](Cc1ccc(Oc2cc(I)c(O)c(I)c2)c(I)c1)C(=O)O [rT3, 3′,5′,3-triiodothyronine]
White adipose tissue mass ([1]; intra-peritoneal osmotic pump, 21 days): significant reduction
Brown adipose tissue ([1]; intra-peritoneal pump, 21 days): all treatments were effective
White adipose tissue mass ([1]; sub-cutaneous osmotic pump, 21 days): significant reduction
Brown adipose tissue ([1]; sub-cutaneous pump, 21 days): more significantly enhanced
Muscular mass ([1]; 25 μg/100 g BW, 8 days, whatever the administration (pellet, IP, per os, sc)): unchanged
White fatty (adipose) tissue mass ([1]; 25 μg/100 g BW, daily intra-peritoneal injection, 8 days): have not effects
White fatty (adipose) tissue mass ([1]; 25 μg/100 g BW, daily oral administration, 8 days): have not effects
White fatty (adipose) tissue mass ([1]; 25 μg/100 g BW, daily sub-cutaneous injection, 8 days): have not effects
Brown adipose tissue mass [1, 3]: significantly enhanced
White fatty (adipose) tissue mass [1, 3]: significant white fatty tissue mass reduction
Epididymal fat mass ([1]; 250 μg/kg BW pellet, three weeks, vs placebo): not different
Mesenteric fat mass [1, 4]: significantly lower
Retroperitoneal fat mass [1, 4]: significantly lower
Subcutaneous fat mass [1, 4]: significantly lower
Brown adipose tissue mass [1, 5]: significantly increased; also recorded: high increase
Muscle mass (lean body mass) [1, 5]: not affected at all; also recorded: do not affect
Muscle tissues mass ([1]; low dose 2.5 μg/100 g BW): do not affect
Brown adipose tissue mass [1, 6]: intermediate increase; also recorded: more significantly enhanced
White adipose tissue mass (fat mass) [1, 6]: reduces the fat mass with a lower efficiency; also recorded: significant reduction
Enzymatic activity of mitochondrial glycerol-3-phosphate dehydrogenase ([2]; liver mitochondria, high dose 25 μg/100 g): significantly increased
Enzymatic activity of mitochondrial glycerol-3-phosphate dehydrogenase (mGPdH) ([2]; liver mitochondria, low dose 2.5 μg/100 g, sub-cutaneous pellet): significantly increased; also recorded: more enhanced
Mitochondrial GPdH activity ([2]; intra-peritoneal pump): enhanced
Mitochondrial GPdH activity ([2]; sub-cutaneous pump): enhanced
